From patent US20150335671A1, “SMALL-MOLECULE BINDING SITE ON PRO-APOPTOTIC BAX REGULATES INHIBITION OF BAX ACTIVITY” (ALBERT EINSTEIN COLLEGE OF MEDICINE OF YESHIVA UNIVERSITY, priority 2013, published 2015)

Columns and labels:
cardiac myocytes = assay: Cardiac myocyte cell death under hypoxia / normoxia; assay type: cell-based
Text: Accordingly, it can be seen that inhibitor compounds which bind to the novel BAX site can protect cardiac myocytes from cell death induced by hypoxia.

[1] = tested on: mitochondrial apoptosis-induced channel; settings: Peixoto et al. Biochem J. 2009; cited from earlier work
BAX [2] = target: T1, BAX (Homo sapiens, UniProt Q07812); assay: Liposome release assay (ANTS/DPX release by tBID-activated BAX); assay type: biochemical
Protocol: FIG. 3. Left: Kinetic trace of percent release of ANTS and DPX from liposomes in response to tBID activated BAX in the absence (blue) and presence of iMAC1 (green) and iMAC2 (Red). Right: Percent release after 20 minutes at different doses of iMAC1 (green), iMAC2 (red) and iMAC3 (blue). Each molecule was tested at 6, 3 and 1.5 μM, high to low doses are indicated by dark to light tones.
FIG. 18A-18B. […] B) Docked structure of […] within the novel BAX site.
iMAC1 and iMAC2 Inhibit BAX Activation in Liposome Release Assays: Liposomes containing the fluorophore, ANTS, and the quencher, DPX, were incubated with 200 nM BAX activated with 30 nM tBID resulting in BAX-mediated pore formation in the liposomal membrane and release of ANTS and DPX.

BAX [3] = target: T1, BAX; assay: NMR chemical shift perturbation of 15N-BAX upon titration; assay type: binding
Text: FIG. 4A-B. Measured chemical shift changes of 15N-BAX upon iMAC1 and iMAC2 titration up to a ratio of 1:4 BAX:iMAC are plotted as a function of BAX residue number. Residues with significant backbone amide chemical shift change are highlighted in orange. Highest significant chemical shift changes (twice the calculated significance threshold) are highlighted in red. […] Chemical shift changes in other regions of the structure are not localized and predominantly occur in hydrophobic residues at the hydrophobic core of the BAX structure. Regions that previously identified to be involved in regulating BAX activation are shown in violet shading (helix α1 and α6), teal shading (helix α2) and yellow shading (helix α9).
FIG. 13: Measured chemical shift changes of ^15N-BAX upon octyl glucoside detergent titration, below the detergent's CMC point, are plotted as a function of BAX residue number. Residues with significant backbone amide chemical shift change are highlighted in orange. Highest significant chemical shift changes (twice the calculated significance threshold) are highlighted in red.
Significant CSP mapped onto the surface and ribbon depictions of BAX (FIG. 5), the BAX trigger site (blue), the canonical BH3-binding site and a9 (green) are included for comparison. Affected residues are represented by the orange and red spheres in the ribbon diagram and by the orange and red bars in the plot (the calculated significance threshold is marked in orange and is equal to the average shift plus the standard deviation while values at double the threshold are marked in red).

oligomeric BAX = oligomeric BAX (Homo sapiens, UniProt Q07812); assay: Ligand-observed NMR (chemical shift, STD, WATER LOGSY); assay type: binding; settings: aromatic peaks of ligand observed
Text: FIG. 22. iMACs bind to both monomer and oligomeric BAX.
iMACs Bind to Both Monomeric and Oligomeric BAX in vitro.

T1 sequence (Q07812 whole entry): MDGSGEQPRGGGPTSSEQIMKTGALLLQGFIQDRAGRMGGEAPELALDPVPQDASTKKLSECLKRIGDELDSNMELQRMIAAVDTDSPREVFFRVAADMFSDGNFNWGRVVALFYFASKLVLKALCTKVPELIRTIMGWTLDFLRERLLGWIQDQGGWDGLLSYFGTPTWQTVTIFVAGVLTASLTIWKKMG
Sequence of oligomeric BAX (Q07812 whole entry): as above

Row | binding to oligomeric BAX (oligomeric BAX) | SMILES | protection from cell death (cardiac myocytes; hypoxia, compared to vehicle (0.2% DMSO)) | effect on cardiac myocytes (cardiac myocytes; normoxia) | inhibition of cytochrome c release and mitochondrial apoptosis-induced channel activity [1] | inhibition of tBID-induced BAX activation and BAX pore formation (release of ANTS and DPX from liposomes) (BAX [2]; 200 nM BAX, 30 nM tBID, tested at 6, 3 and 1.5 μM, release after 20 minutes) | region of chemical shift changes of 15N-BAX (BAX [3]; iMAC titration up to a ratio of 1:4 BAX:iMAC) | inhibition of BAX activation and BAX-mediated pore formation in liposomal membranes (BAX [2]; concentrations well below the critical micelle concentration (CMC)) | region of chemical shift changes of 15N-BAX (BAX [3]; detergent titration below the detergent's CMC point) | binding to the novel BAX site by NMR analysis (BAX [3]; octyl glucoside titration, FIG. 13)
1 | – | OC(CN1CCNCC1)Cn1c2ccc(Br)cc2c2cc(Br)ccc21 (stereo not shown) [iMAC1] | protects cardiac myocytes from cell death induced by hypoxia | no effect | more potent inhibitors | – | – | – | – | –
2 | binding to both oligomeric BAX | Cl.Cl.FC(CN1CCNCC1)Cn1c2ccc(Br)cc2c2cc(Br)ccc21 (stereo not shown) [iMAC2] | – | – | more potent inhibitors | inhibit tBID-induced BAX activation and BAX pore formation | concentrated in the region formed by helices α3, α4, α5 and loop α3-α4 | – | – | –
3 | – | CCCCCCCCO[C@@H]1O[C@H](CO)[C@@H](O)[C@H](O)[C@H]1O [n-octyl-3-D-glucoside] | – | – | – | – | – | inhibits BAX activation and BAX-mediated pore formation | concentrated in the region formed by helices α3, α4, α5, α6 and loop α3-α4 | binding to the novel site that regulates BAX inhibition
